Assay results reported in US20070224593A1 (priority 2005, published 2007).

Assays:
PrP-d = PrP-d (Ovis aries, UniProt P23907); format: binding; details: same section of unfixed lymphoid tissue from scrapie positive sheep
[1] = molecular target: non-amyloid or pre-amyloid PrP-d (Ovis aries, UniProt P23907); format: binding; details: such compounds were previously believed to associate only with classical amyloid PrP-d isoforms
[2] = molecular target: scrapie-form prion protein (PrP-d) (Ovis aries, UniProt P23907); details: retropharyngeal lymph nodes of TSE+ sheep, ex vivo; 100 μM, 10 min, RT; λex approx. 370 nm, λem approx. 450 nm; TSE status confirmed by PrP-d immunohistochemistry
Chain of scrapie-form prion protein (PrP-d) (P23907 25-233 limits assumed): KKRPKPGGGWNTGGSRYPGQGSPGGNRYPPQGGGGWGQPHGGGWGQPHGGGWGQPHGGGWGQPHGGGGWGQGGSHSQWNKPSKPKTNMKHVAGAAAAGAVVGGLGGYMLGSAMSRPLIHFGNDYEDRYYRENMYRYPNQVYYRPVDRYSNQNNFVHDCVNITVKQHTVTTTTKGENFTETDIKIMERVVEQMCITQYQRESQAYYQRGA

Chain of non-amyloid or pre-amyloid PrP-d (P23907 25-233 limits assumed): as above
Chain of PrP-d (P23907 25-233 limits assumed): as above

Row | Compound | Correlation of probe imaging with antibody binding (immunohistochemistry, AEC) (PrP-d) | Binding to non-amyloid or pre-amyloid PrP-d [1] | PrP-d detection and visualization by probe fluorescence [2]
1 | O=C(O)c1cc(C=Cc2ccc(C=Cc3ccc(O)c(C(=O)O)c3)cc2)ccc1O [X-34, 1,4-bis(3-carboxy-4-hydroxyphenylethenyl)-benzene] | colocalization of the X34 binding and the antibody binding | Binding | –
2 | 1,4-bis(4′-hydroxystyrl)-2-methoxybenzene [Me-X04] | – | Binding | detected and visualized
